The values that follow come from PubChem BioAssay AID330 (DTP/NCI, 2004).

“And” between values parts separate entries of the source, which are not always exact repeats. Equal values may be shown once. Inconclusive results and toxic doses are left out.

For this experiment, the system named is P388 leukemia ip, CD2F1 mice, survival T/C. The experiment in a line: NCI In Vivo Anticancer Drug Screen. Data for tumor model P388 Leukemia (intraperitoneal) in CD2F1 (CDF1) mice. The following applies: endpoint: median survival time, higher = longer survival. In short, it runs like this: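 Mice carrying the transplanted tumor received test compound or vehicle. Survival was recorded in each group, and the value is the treated-group measurement divided by that of the vehicle-treated control group.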

Setting [1] is: dose: 50.0 mg/kg/injection, schedule: Q01DX005 (ip), vehicle: saline with Tween-80.
[2] abbreviates: dose: 100.0 mg/kg/injection, schedule: Q01DX005 (ip), vehicle: saline with Tween-80.
Where [3] appears, read: dose: 25.0 mg/kg/injection, schedule: Q01DX009 (ip), vehicle: saline.
Where [4] appears, read: dose: 50.0 mg/kg/injection, schedule: Q01DX009 (ip), vehicle: saline.
The mark [5] stands for this setting: dose: 50.0 mg/kg/injection, schedule: Q01DX009 (ip), vehicle: saline with Tween-80.
The mark [6] stands for this setting: dose: 100.0 mg/kg/injection, schedule: Q01DX009 (ip), vehicle: saline with Tween-80.
Setting [7] is: dose: 200.0 mg/kg/injection, schedule: Q01DX009 (ip), vehicle: saline with Tween-80.
Setting [8] is: dose: 25.0 mg/kg/injection, schedule: Q01DX009 (ip), vehicle: saline with Tween-80.
[9] abbreviates: dose: 12.5 mg/kg/injection, schedule: Q01DX009 (ip), vehicle: saline.
Where [10] appears, read: dose: 25.0 mg/kg/injection, schedule: Q04DX002 (ip), vehicle: saline with Tween-80.
Where [11] appears, read: dose: 60.0 mg/kg/injection, schedule: Q01DX005 (ip), vehicle: saline with Tween-80.
Where [12] appears, read: dose: 120.0 mg/kg/injection, schedule: Q01DX005 (ip), vehicle: saline with Tween-80.
The mark [13] stands for this setting: dose: 240.0 mg/kg/injection, schedule: Q01DX005 (ip), vehicle: saline with Tween-80.

Consider `CC[n+]1c(C)sc2ccccc21`, for which the T/C was 91 % of control (dose: 25.0 mg/kg/injection, schedule: Q01DX005 (ip), vehicle: saline) and 94 % of control (dose: 50.0 mg/kg/injection, schedule: Q01DX005 (ip), vehicle: saline).
Take `CCN(CC)Cc1cc2[nH]c3c4ccc(Cl)cc4ncc3c2cc1OC` (tested in a mixture with another compound): the T/C was 100 % of control and 108 % of control (dose: 12.5 mg/kg/injection, schedule: Q01DX005 (ip), vehicle: saline with Tween-80); 109 % of control [middle of 4 runs] (dose: 25.0 mg/kg/injection, schedule: Q01DX005 (ip), vehicle: saline with Tween-80); 102 % of control and 103 % of control and 113 % of control under setting [1]; 105 % of control and 109 % of control and 106 % of control under setting [2].
Take `O=C(O)CCCCCCCCC(=O)CCl`: the T/C is 99 % of control under setting [3] and 115 % of control under setting [4].
On to `Cc1nc2c(N)nn(C)c2nc1C`, for which the T/C runs as follows: under setting [5], 105 % of control; under setting [6], 110 % of control; under setting [7], 110 % of control.
For the molecule `COc1ccc([N+](=O)[O-])cc1NC(=O)C1C(=O)C(=O)N(c2cc([N+](=O)[O-])ccc2OC)C1=O` (stereo not drawn), the T/C is, setting by setting: (dose: 50.0 mg/kg/injection, schedule: Q01DX009 (ip), vehicle: Klucel (hydroxypropylcellulose) (HPC)) 100 % of control; (dose: 100.0 mg/kg/injection, schedule: Q01DX009 (ip), vehicle: Klucel (hydroxypropylcellulose) (HPC)) 100 % of control; (dose: 200.0 mg/kg/injection, schedule: Q01DX009 (ip), vehicle: Klucel (hydroxypropylcellulose) (HPC)) 115 % of control.
As to `Clc1ccc(OCCBr)cc1`, the T/C is 105 % of control (dose: 50.0 mg/kg/injection, schedule: Q04DX003 (ip), vehicle: saline with Tween-80); 101 % of control (dose: 100.0 mg/kg/injection, schedule: Q04DX003 (ip), vehicle: saline with Tween-80); 105 % of control (dose: 200.0 mg/kg/injection, schedule: Q04DX003 (ip), vehicle: saline with Tween-80); 99 % of control (dose: 400.0 mg/kg/injection, schedule: Q04DX003 (ip), vehicle: saline with Tween-80).
`N=c1nc(-c2ccccc2)c(-c2ccccc2)nn1CC(=O)c1ccccc1`: the T/C reads like this: (dose: 50.0 mg/kg/injection, schedule: Q01DX005 (ip), vehicle: Klucel (hydroxypropylcellulose) (HPC)) 112 % of control; (dose: 100.0 mg/kg/injection, schedule: Q01DX005 (ip), vehicle: Klucel (hydroxypropylcellulose) (HPC)) 101 % of control; (dose: 200.0 mg/kg/injection, schedule: Q01DX005 (ip), vehicle: Klucel (hydroxypropylcellulose) (HPC)) 94 % of control.
As for `c1ccc2sc(SSc3nc4ccccc4s3)nc2c1`, the T/C is 110 % of control under setting [5]; 108 % of control under setting [6]; 104 % of control under setting [7]; 109 % of control (dose: 400.0 mg/kg/injection, schedule: Q01DX009 (ip), vehicle: saline with Tween-80).
For `CN(N=O)C(=O)NCCNC(=O)C1OC(n2ccc(=O)[nH]c2=O)C(O)C1O` (stereo not drawn), for the setting “dose: 100.0 mg/kg/injection, schedule: Q01DX009 (ip), vehicle: saline”, the T/C is 108 % of control.
Take `CSC(=CC(=O)c1ccccc1)SC`: the T/C (dose: 12.5 mg/kg/injection, schedule: Q01DX009 (ip), vehicle: saline with Tween-80) is 104 % of control; the T/C under setting [8] was 105 % of control; the T/C under setting [5] is 114 % of control; the T/C under setting [6] was 110 % of control.
As to `CN(C)CCCN1C(=O)C2CCC(C)(C1=O)C2(C)C` (stereo not drawn), the T/C was 100 % of control under setting [1] and 101 % of control under setting [2].
As to `C(Oc1nc(OCC2CO2)nc(OCC2CO2)n1)C1CO1` (stereo not drawn), the T/C under setting [9] was 108 % of control; the T/C under setting [3] is 105 % of control; the T/C under setting [4] was 101 % of control and 108 % of control.
As to `COC(=O)c1nc(N)nc(C(=O)OC)c1C(=O)c1ccc(Cl)cc1`, the T/C (dose: 60.0 mg/kg/injection, schedule: Q01DX005 (ip), vehicle: Klucel (hydroxypropylcellulose) (HPC)) is 103 % of control and the T/C (dose: 120.0 mg/kg/injection, schedule: Q01DX005 (ip), vehicle: Klucel (hydroxypropylcellulose) (HPC)) was 101 % of control.
In the case of `CC(C)(C)c1cc(I)c(O)c(CN)c1`, the T/C under setting [3] is 123 % of control.
Take `O=C1CCC(=O)C1`: the T/C is, setting by setting: (dose: 60.0 mg/kg/injection, schedule: Q01DX005 (ip), vehicle: saline) 100 % of control; (dose: 120.0 mg/kg/injection, schedule: Q01DX005 (ip), vehicle: saline) 93 % of control; (dose: 240.0 mg/kg/injection, schedule: Q01DX005 (ip), vehicle: saline) 105 % of control.
With `COC(=O)CC1(C(=O)OC)c2ccc3ccccc3c2N2CCCC21` (stereo not drawn), the T/C runs as follows: (dose: 100.0 mg/kg/injection, schedule: Q01DX001 (ip), vehicle: saline) 102 % of control; (dose: 200.0 mg/kg/injection, schedule: Q01DX001 (ip), vehicle: saline) 100 % of control; (dose: 400.0 mg/kg/injection, schedule: Q01DX001 (ip), vehicle: saline) 100 % of control.
Consider `O=C(O)CNC(CO)C(=O)O` (stereo not drawn), for which the T/C is 100 % of control (dose: 25.0 mg/kg/injection, schedule: Q01DX005 (ip), vehicle: water); 100 % of control (dose: 50.0 mg/kg/injection, schedule: Q01DX005 (ip), vehicle: water); 95 % of control (dose: 100.0 mg/kg/injection, schedule: Q01DX005 (ip), vehicle: water); 89 % of control (dose: 200.0 mg/kg/injection, schedule: Q01DX005 (ip), vehicle: water).
For `CCN(CC)C(C)COC(=O)c1ccc(N)cc1` (stereo not drawn), the T/C is, setting by setting: under setting [9], 86 % of control; (dose: 12.5 mg/kg/injection, schedule: Q04DX003 (ip), vehicle: saline) 95 % of control; (dose: 25.0 mg/kg/injection, schedule: Q04DX003 (ip), vehicle: saline) 91 % of control; under setting [4], 100 % of control; (dose: 50.0 mg/kg/injection, schedule: Q04DX003 (ip), vehicle: saline) 91 % of control.
Regarding `Cc1ccc(NC(=O)Oc2ccc(C(C)(C)C)cc2Br)c([N+](=O)[O-])c1`, the T/C was 96 % of control under setting [5], 97 % of control under setting [6] and 101 % of control under setting [7].
With `O=C(O)c1cc(O)cc(C(=O)O)c1`, the T/C is 99 % of control under setting [8], 99 % of control under setting [5] and 94 % of control under setting [6].
As to `Cn1c(-c2ccc(Cl)cc2)cc2cc(CN3C(=O)c4ccccc4C3=O)ccc21`, the T/C (dose: 25.0 mg/kg/injection, schedule: Q04DX003 (ip), vehicle: Klucel (hydroxypropylcellulose) (HPC)) is 95 % of control; the T/C (dose: 50.0 mg/kg/injection, schedule: Q04DX003 (ip), vehicle: Klucel (hydroxypropylcellulose) (HPC)) is 96 % of control; the T/C (dose: 100.0 mg/kg/injection, schedule: Q04DX003 (ip), vehicle: Klucel (hydroxypropylcellulose) (HPC)) was 87 % of control and 88 % of control; the T/C (dose: 400.0 mg/kg/injection, schedule: Q04DX003 (ip), vehicle: Klucel (hydroxypropylcellulose) (HPC)) is 87 % of control.
`Nc1cc2c(c[n+](Cc3ccccc3)c3ccccc23)c2ccccc12`: the T/C reads like this: (dose: 0.2 mg/kg/injection, schedule: Q04DX003 (ip), vehicle: water) 105 % of control; (dose: 0.39 mg/kg/injection, schedule: Q04DX003 (ip), vehicle: water) 102 % of control; (dose: 0.78 mg/kg/injection, schedule: Q04DX003 (ip), vehicle: water) 102 % of control; (dose: 1.56 mg/kg/injection, schedule: Q04DX003 (ip), vehicle: water) 105 % of control.
For `CN=C(N)N/N=C/c1c2ccccc2c(Cl)c2ccccc12`, under setting [10], the T/C is 114 % of control.
With `O=S(=O)(F)c1cccc(Cl)c1C[P+](c1ccccc1)(c1ccccc1)c1ccccc1`, the T/C (dose: 15.0 mg/kg/injection, schedule: Q01DX005 (ip), vehicle: saline with Tween-80) is 112 % of control.
Take `CC(C)(/C=N/O)N1CC=CCC1`: the T/C runs as follows: (dose: 12.5 mg/kg/injection, schedule: Q04DX002 (ip), vehicle: saline with Tween-80) 101 % of control; under setting [10], 100 % of control; (dose: 50.0 mg/kg/injection, schedule: Q04DX002 (ip), vehicle: saline with Tween-80) 97 % of control.
With `CCOC(=O)C1C(c2cccc(OC)c2O)c2cc3c(cc2OC1(C)N1CCCC1)OCO3` (stereo not drawn), the T/C was 99 % of control under setting [11], 92 % of control under setting [12] and 89 % of control under setting [13].
The corresponding values for `Cc1ccc(C)c(NC(=O)CCC(=O)C(C#N)c2cccc3ccccc23)c1` (stereo not drawn) are 104 % of control, 104 % of control and 105 % of control.
